Among the data in ChEMBL document CHEMBL5465560, “Selectivity Literature for EUbOPEN Chemogenomic Library” (2024) are % of inhibition and % of control values, retold here.

Experiment [1] has as its target Serine/threonine-protein kinase 10 (Homo sapiens) (UniProt O94804). The experiment is described as follows: Selectivity interaction (ActivX KiNativ screen (ex vivo kinase selectivity in human PBMCs)) EUB0001619a STK10. It is filed as cell-based. The conditions noted are these: PBMC, at 1 µM.
In experiment [2] the target is T1, Serine/threonine-protein kinase TAO1 (Homo sapiens) (UniProt Q7L7X3).
T1 sequence (whole entry): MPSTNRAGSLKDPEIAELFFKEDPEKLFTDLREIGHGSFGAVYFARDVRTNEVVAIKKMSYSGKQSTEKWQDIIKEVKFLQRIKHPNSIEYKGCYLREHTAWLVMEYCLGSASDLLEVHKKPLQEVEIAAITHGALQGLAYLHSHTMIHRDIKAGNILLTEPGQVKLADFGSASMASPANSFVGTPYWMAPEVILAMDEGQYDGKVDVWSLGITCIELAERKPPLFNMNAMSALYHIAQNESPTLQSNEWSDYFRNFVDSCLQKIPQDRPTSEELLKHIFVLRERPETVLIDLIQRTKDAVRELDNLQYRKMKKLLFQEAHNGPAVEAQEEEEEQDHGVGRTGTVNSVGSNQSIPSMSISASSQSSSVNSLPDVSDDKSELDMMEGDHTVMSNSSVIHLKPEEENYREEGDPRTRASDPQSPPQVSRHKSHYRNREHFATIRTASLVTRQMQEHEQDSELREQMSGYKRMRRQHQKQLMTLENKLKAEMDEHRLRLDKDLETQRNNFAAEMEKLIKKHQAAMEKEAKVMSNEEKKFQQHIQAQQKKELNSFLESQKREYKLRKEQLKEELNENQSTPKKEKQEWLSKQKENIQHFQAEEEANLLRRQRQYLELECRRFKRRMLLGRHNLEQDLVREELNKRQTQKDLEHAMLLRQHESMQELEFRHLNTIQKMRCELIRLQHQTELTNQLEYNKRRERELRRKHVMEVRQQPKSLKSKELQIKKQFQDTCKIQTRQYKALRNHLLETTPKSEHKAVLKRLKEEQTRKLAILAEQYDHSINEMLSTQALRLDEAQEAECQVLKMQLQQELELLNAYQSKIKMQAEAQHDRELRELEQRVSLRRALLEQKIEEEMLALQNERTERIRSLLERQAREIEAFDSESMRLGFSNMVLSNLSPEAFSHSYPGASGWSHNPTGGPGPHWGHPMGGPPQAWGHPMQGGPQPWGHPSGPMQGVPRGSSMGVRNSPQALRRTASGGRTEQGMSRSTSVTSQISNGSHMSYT
The experiment in a line: Selectivity interaction (ActivX KiNativ screen (ex vivo kinase selectivity in human PBMCs)) EUB0001619a TAOK1. The conditions noted are these: PBMC, at 1 µM. The experiment is classed as cell-based.

In experiment [3] the test system is Phosphatidylinositol 4,5-bisphosphate 3-kinase catalytic subunit alpha isoform (Homo sapiens), P42336 [H1047L]. The conditions noted are these: at 10 µM.
Experiment [4] has as its target MAP kinase-interacting serine/threonine-protein kinase 1 (Homo sapiens) (UniProt Q9BUB5). The experiment is described as follows: Selectivity interaction (KinomeScan (DiscoverX)) EUB0000607a MKNK1. The conditions noted are these: at 10 µM.
For experiment [5], the target named is T2, Tyrosine-protein kinase Tec (Homo sapiens) (UniProt P42680).
T2 sequence (whole entry): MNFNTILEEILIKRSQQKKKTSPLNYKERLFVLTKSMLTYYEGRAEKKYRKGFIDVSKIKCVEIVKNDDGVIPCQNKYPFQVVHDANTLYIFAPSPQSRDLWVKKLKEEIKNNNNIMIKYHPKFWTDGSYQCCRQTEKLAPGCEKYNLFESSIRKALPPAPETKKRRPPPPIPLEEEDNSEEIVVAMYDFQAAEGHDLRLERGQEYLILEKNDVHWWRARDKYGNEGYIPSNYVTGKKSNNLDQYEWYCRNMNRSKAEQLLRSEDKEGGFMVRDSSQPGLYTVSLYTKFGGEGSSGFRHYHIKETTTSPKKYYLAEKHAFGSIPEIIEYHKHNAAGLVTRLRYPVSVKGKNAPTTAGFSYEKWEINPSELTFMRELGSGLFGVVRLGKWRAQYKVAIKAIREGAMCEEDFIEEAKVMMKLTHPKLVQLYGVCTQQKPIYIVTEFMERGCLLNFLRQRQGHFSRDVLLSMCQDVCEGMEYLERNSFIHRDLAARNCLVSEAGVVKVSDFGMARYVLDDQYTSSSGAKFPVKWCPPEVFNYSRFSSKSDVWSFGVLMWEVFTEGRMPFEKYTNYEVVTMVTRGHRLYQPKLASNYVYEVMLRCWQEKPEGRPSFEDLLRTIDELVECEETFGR
The conditions noted are these: at 10 µM.

In experiment [6] the target is Serine/threonine-protein kinase PLK3 (Homo sapiens, UniProt Q9H4B4). The experiment in a line: Selectivity interaction (KinomeScan (DiscoverX)) EUB0000045b PLK3.
Experiment [7] concerns the target Tyrosine-protein kinase Lyn (Homo sapiens, UniProt P07948). The experiment is described as follows: Selectivity interaction (KinomeScan (DiscoverX)) EUB0000045b LYN.
For experiment [8], the target named is Tyrosine-protein kinase JAK2 (Homo sapiens, UniProt O60674). The experiment is described as follows: Selectivity interaction (ProQinase) EUB0000171b JAK2.
Tyrosine-protein kinase JAK2, sequence (O60674 whole entry): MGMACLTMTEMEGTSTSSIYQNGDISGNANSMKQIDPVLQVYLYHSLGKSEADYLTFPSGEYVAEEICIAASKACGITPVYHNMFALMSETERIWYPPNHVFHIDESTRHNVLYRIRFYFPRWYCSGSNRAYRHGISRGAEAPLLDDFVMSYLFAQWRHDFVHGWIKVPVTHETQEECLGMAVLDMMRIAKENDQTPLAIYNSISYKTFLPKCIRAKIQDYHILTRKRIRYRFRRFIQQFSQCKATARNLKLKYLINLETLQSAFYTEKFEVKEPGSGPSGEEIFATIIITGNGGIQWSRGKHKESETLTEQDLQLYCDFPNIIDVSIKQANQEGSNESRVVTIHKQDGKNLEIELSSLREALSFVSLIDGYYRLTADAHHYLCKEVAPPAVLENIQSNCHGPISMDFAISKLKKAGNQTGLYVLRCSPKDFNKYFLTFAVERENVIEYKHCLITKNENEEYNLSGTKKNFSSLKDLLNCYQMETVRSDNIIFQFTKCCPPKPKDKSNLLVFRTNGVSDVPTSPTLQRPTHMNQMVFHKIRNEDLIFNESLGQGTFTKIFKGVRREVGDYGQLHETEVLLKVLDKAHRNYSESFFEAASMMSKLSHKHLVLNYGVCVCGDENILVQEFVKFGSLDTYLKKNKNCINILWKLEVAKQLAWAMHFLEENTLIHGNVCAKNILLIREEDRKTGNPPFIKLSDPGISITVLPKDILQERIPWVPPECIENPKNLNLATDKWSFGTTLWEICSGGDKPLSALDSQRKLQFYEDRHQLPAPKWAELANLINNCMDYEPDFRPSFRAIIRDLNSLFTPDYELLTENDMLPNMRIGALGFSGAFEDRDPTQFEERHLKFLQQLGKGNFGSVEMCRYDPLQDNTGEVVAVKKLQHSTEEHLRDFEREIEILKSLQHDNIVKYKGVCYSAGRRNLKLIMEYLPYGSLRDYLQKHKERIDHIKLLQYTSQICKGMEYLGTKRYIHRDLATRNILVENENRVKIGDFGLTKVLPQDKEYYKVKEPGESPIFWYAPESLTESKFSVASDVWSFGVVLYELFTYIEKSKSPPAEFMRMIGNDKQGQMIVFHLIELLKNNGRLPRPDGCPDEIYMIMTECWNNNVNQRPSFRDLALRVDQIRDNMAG

Tyrosine-protein kinase Lyn, sequence (P07948 2-512 limits assumed): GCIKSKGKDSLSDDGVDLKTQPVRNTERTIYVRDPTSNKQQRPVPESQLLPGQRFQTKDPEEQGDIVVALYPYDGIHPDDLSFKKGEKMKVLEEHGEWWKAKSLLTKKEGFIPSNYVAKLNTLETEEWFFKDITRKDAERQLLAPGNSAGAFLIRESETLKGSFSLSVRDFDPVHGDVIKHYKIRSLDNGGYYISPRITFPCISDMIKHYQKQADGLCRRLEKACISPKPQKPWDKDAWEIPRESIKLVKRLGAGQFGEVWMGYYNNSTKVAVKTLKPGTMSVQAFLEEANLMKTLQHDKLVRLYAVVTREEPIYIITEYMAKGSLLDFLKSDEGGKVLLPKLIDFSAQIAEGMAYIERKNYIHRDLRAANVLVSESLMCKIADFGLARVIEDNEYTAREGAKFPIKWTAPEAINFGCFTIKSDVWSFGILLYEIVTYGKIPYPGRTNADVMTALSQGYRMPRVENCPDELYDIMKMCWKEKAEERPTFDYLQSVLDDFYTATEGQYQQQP
Serine/threonine-protein kinase PLK3, sequence (Q9H4B4 whole entry, looked up): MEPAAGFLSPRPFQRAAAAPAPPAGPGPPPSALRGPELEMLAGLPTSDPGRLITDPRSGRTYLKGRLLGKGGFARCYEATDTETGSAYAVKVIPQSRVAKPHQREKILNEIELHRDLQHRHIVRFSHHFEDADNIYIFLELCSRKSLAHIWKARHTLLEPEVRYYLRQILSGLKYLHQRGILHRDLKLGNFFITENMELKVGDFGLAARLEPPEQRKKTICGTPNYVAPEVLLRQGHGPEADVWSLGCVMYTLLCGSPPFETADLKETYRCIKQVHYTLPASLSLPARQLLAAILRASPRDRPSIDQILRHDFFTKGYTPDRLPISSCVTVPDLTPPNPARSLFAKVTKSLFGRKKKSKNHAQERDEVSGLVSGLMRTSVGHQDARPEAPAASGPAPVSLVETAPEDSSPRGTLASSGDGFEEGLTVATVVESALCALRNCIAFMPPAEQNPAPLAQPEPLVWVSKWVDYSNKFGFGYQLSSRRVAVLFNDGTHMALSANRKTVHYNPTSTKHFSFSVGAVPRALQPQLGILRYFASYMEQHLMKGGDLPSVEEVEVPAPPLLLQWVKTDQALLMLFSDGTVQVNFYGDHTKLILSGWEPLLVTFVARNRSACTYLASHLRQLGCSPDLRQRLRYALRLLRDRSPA
MAP kinase-interacting serine/threonine-protein kinase 1 (Homo sapiens), sequence (Q9BUB5 whole entry, looked up): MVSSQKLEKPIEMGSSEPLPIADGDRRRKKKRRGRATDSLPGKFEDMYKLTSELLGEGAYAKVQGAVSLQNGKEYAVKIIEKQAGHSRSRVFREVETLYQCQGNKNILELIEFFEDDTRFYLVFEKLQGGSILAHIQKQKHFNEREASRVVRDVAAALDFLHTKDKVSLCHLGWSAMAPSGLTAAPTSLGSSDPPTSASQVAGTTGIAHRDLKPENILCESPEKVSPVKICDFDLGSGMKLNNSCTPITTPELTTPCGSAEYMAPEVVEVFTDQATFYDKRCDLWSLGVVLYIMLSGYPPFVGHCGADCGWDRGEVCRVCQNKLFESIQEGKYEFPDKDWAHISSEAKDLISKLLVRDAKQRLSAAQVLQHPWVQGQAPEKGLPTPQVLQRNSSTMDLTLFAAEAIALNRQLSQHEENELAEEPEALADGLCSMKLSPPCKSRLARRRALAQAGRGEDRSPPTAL
Phosphatidylinositol 4,5-bisphosphate 3-kinase catalytic subunit alpha isoform (Homo sapiens), P42336 [H1047L], sequence (P42336 whole entry H1047L, canonical isoform): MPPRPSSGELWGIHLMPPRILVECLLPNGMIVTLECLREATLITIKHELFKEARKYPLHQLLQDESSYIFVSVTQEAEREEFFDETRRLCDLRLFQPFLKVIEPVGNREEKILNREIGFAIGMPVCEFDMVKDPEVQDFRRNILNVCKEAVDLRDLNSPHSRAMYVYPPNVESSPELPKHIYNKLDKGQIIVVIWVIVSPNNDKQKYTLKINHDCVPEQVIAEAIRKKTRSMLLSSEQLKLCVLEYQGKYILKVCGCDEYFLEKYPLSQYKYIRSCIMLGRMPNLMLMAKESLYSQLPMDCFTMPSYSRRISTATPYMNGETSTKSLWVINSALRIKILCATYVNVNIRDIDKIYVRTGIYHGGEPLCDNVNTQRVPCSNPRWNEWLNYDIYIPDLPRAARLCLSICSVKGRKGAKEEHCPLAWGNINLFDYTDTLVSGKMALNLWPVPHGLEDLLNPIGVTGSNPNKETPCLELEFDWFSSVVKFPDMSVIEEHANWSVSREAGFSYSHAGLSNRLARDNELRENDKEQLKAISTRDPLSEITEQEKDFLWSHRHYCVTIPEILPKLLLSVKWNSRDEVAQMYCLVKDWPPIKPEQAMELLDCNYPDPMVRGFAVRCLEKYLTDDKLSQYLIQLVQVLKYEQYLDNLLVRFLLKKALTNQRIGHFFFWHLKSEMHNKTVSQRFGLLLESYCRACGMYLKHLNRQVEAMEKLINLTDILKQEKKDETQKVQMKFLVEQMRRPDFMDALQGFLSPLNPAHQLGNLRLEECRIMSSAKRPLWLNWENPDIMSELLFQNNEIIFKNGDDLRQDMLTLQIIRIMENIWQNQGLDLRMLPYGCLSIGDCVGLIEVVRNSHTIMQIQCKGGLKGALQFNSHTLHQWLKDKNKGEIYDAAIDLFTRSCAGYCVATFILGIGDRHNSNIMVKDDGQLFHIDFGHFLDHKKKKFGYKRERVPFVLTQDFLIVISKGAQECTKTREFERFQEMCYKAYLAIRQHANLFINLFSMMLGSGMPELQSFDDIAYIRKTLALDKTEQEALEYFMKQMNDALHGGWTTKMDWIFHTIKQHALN
Serine/threonine-protein kinase 10 (Homo sapiens), sequence (O94804 whole entry, looked up): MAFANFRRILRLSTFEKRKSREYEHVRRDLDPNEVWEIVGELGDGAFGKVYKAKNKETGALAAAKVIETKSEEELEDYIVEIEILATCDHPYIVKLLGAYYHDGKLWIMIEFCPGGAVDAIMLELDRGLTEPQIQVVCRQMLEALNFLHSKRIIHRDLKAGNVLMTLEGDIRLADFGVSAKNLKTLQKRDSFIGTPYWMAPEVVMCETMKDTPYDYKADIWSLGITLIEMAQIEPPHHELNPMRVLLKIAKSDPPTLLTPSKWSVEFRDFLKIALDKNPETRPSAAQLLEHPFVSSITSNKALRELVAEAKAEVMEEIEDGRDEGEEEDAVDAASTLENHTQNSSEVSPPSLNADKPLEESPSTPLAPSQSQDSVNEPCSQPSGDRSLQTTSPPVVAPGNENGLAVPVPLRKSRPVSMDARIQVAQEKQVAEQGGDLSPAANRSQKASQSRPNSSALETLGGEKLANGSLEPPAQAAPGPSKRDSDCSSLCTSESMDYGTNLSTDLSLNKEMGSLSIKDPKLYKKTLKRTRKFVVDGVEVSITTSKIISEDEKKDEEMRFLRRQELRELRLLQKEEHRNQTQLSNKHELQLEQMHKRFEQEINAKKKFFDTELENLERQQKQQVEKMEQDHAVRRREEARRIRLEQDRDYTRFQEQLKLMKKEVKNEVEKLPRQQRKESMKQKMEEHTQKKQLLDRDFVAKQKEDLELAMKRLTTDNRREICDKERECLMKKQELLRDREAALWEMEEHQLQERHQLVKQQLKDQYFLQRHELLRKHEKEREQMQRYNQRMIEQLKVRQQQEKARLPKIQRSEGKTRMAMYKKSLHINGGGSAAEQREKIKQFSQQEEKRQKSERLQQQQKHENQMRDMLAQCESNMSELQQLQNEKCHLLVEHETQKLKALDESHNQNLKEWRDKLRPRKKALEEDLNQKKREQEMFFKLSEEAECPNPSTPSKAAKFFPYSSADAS

`N#Cc1cccc(-c2c[nH]c3ncnc(N4CCOCC4)c23)c1`: the % of inhibition in experiment [1] is 54%; in experiment [2], 6%.

Take `CNC(=O)Nc1ccc(-c2nc(N3CC4CCC(C3)O4)c3cnn(C4CCC5(CC4)OCCO5)c3n2)cc1`: the % of control in experiment [3] turned out to be 15%; in experiment [4], 100%.

On to `Cc1cc([C@@H](C)Nc2ccccc2C(=O)O)c2nc(N3CCOCC3)cc(=O)n2c1` [AZD-6482], for which the % of control in experiment [5] came out at 91%.

`C=CC(=O)Nc1cc(-n2c(=O)ccc3cnc4ccc(-c5ccc(NS(C)(=O)=O)cc5)cc4c32)ccc1C`: the % of control amounted to 100% in experiment [6] (at 1 µM), 100% in experiment [6] (at 10 µM), 92% in experiment [7] (at 1 µM) and 91% in experiment [7] (at 10 µM).

On to `C=CC(=O)Nc1cccc(C(=O)Nc2ccc(Nc3cc(-c4[nH]c(SC)nc4C)ccn3)cc2)c1`, for which the results for the % of control in experiment [8] (at 1 µM) and in experiment [8] (at 5 µM) were 80% and 72%, respectively.
